From PMC11358092, “Caspofungin enhances the potency of rifampin against Gram-negative bacteria” (Frontiers in Microbiology, 2024)
Like-named read-outs stand apart in the source and are kept apart here. Numbered stars: 1 amine (or outer) side, 2 acyl side, 3 side chain; on linkers, the order of the positions; unused ones are H or OH. Bridge positions count the residues as written; N and C are the ends. Square brackets hold non-standard residues; d marks the D form. Peptide text beside a SMILES is read from it. * marks the point of attachment. pTerphenylCO(4''-OnC5H11) = CCCCCOc1ccc(-c2ccc(-c3ccc(C(=O)*)cc3)cc2)cc1; Orn(4R-OH,5R-OH) = O=C([C@H](C[C@@H](O)[C@@H](O)N[*:3])N[*:1])[*:2]; hTyr(3S-OH,4S-OH) = N[C@H](C(=O)O)[C@H](O)[C@@H](O)c1ccc(O)cc1; Pro(3S-OH,4S-Me) = C[C@H]1CN[C@H](C(=O)O)[C@H]1O; Hyp = O=C(O)[C@@H]1C[C@@H](O)CN1

Columns and labels:
E. coli MG1655 [1] = assay: microbe, parasite or virus in culture; type: cell-based, Escherichia coli; conditions: for FICI in combination with rifampin: 8 × 8 checkerboard, FICI ≤0.5 indicates synergy; for Synergistic activity with rifampin (in words): checkerboard assays, analogs of CAS
Description: (§1) Checkerboard assays were performed to evaluate the synergistic effect of CAS in combination with antibiotics as previously described ([Cai et al., 2023]). Briefly, antibiotics and CAS were diluted two times with MHB medium (with or without Mg^2+ or EDTA) in a 96-well plate, respectively, to form an 8 × 8 medium, and an equal volume (200 μL/well) of bacterial suspension with the drug was cultured. A microplate reader was used to measure the OD600 value after 18 h of culture at 37°C (the OD600 value over 0.1 indicates bacterial growth). The fractional inhibitory concentration index (FICI) was calculated using the following formula: FICI = MICab/MICa + MICba/MICb. MICa and MICb are the corresponding MIC values of compounds A and B alone, respectively; MICab is the MIC value of compound A combined with compound B; and MICba is the MIC value of compound B combined with compound A. Indicative of synergy is FICI ≤0.5.

E. coli 69 = assay: Checkerboard assay; type: cell-based, Escherichia coli; conditions: MHB, 18 h at 37°C, OD600
Description: as §1

E. coli 72 [2] = assay: Checkerboard assay; type: cell-based, Escherichia coli; conditions: multidrug-resistant strain, MHB, 18 h at 37°C, OD600
Description: as §1

E. coli ATCC25922 = assay: Checkerboard assay; type: cell-based, Escherichia coli; conditions: MHB, 18 h at 37°C, OD600
Description: as §1

E. coli MG1655 [3] = assay: Time-kill curve; type: cell-based, Escherichia coli; conditions: 1 × 10^6 CFU in MHB; CAS 16 μg/mL, rifampin 1 μg/mL, alone or combined; counted at 4, 8, 24 h
Description: (§2) At each time point (0, 4, 8, and 24 h), 100 μL of the bacterial solution was continuously diluted 10-fold in physiological saline. Subsequently, the suspension was then plated onto LB agar plates and cultured for an overnight period at 37°C for bacterial count.

E. coli 72 [4] = assay: Time-kill curve; type: cell-based, Escherichia coli; conditions: 1 × 10^6 CFU in MHB; CAS 32 μg/mL, rifampin 8 μg/mL, alone or combined; counted at 4, 8, 24 h
Description: as §2

[5] = test system: Salmonella Typhimurium ATCC14028; assay: Checkerboard assay; type: cell-based; conditions: MHB, 18 h at 37°C, OD600
Description: as §1

E. coli MG1655 [6] = assay: High-throughput screening of FDA-approved drug library for antibiotic adjuvants (growth inhibition, OD600); type: cell-based, Escherichia coli; conditions: library drug alone, LB medium, 96-well, 8 h static culture at 37°C, relative to PMBN (positive) and DMSO (negative) controls, %, table head prints no unit
E. coli 72 [7] = assay: Galleria mellonella infection model; type: in vivo; conditions: 2.25 × 10^5 CFU E. coli 72; CAS 64 mg/kg, rifampin 16 mg/kg, alone or in combination, injected via proleg; 10 larvae per group; survival over 48 h
P. aeruginosa PAO1 = assay: Checkerboard assay; type: cell-based, Pseudomonas aeruginosa; conditions: MHB, 18 h at 37°C, OD600
Description: as §1

K+ channel (KvQT1/minK) = conditions: vendor library annotation (Targetmol); ref Kang J, et al. J Pharmacol Exp Ther. 2001 Oct;299(1):290-6; read-out: IC50, K+ channel (KvQT1/minK) antagonist; cited from earlier work
Description: Supplement Table_1.XLSX, sheet "Sheet1" | column: Bioactivity

E. coli MG1655 [8] = assay: High-throughput screening of FDA-approved drug library for antibiotic adjuvants (growth inhibition, OD600); type: cell-based, Escherichia coli
[9] = library drug with 2 μg/mL rifampin, LB medium, 96-well, 8 h static culture at 37°C, OD600, relative to PMBN (positive) and DMSO (negative) controls, %, table head prints no unit

With Micafungin sodium the “FICI in combination with rifampin” value (E. coli MG1655 [1]; MHB, 18 h at 37°C) was over 1 and the “Synergistic activity with rifampin (in words)” value (“Synergistic activity” below) (E. coli MG1655 [1]) was “weak synergistic activity”.

In the case of Pneumocandin B0, the “FICI in combination with rifampin” value (E. coli MG1655 [1]; MHB, 18 h at 37°C) is reported as over 1 and the “Synergistic activity” value (E. coli MG1655 [1]) is reported as “weak synergistic activity”.

For `CCCCCOc1ccc(-c2ccc(-c3ccc(C(=O)N[C@H]4C[C@@H](O)[C@@H](O)NC(=O)[C@@H]5[C@@H](O)[C@@H](C)CN5C(=O)[C@H]([C@@H](C)O)NC(=O)[C@H]([C@H](O)[C@@H](O)c5ccc(O)cc5)NC(=O)[C@@H]5C[C@@H](O)CN5C(=O)[C@H]([C@@H](C)O)NC4=O)cc3)cc2)cc1` [Anidulafungin] ({pTerphenylCO(4''-OnC5H11)}-[Orn(4R-OH,5R-OH)]T[Hyp][hTyr(3S-OH,4S-OH)]T[Pro(3S-OH,4S-Me)]; lactam 1-C; N-terminus assumed), the “FICI in combination with rifampin” value (E. coli MG1655 [1]; MHB, 18 h at 37°C) was over 1 and the “Synergistic activity” value (E. coli MG1655 [1]) was “weak synergistic activity”.

For `CO[C@H]1/C=C/O[C@@]2(C)Oc3c(C)c(O)c4c(O)c(c(/C=N/N5CCN(C)CC5)c(O)c4c3C2=O)NC(=O)/C(C)=C\C=C\[C@H](C)[C@H](O)[C@@H](C)[C@@H](O)[C@@H](C)[C@H](OC(C)=O)[C@@H]1C` [rifampin], the MIC (E. coli 69; Escherichia coli, 69, rifampin alone) was 8 µg/mL, the “MIC of rifampin in combination with CAS” value (E. coli 69; rifampin with CAS) was 0.5 µg/mL and the MIC (E. coli 72 [2]; Escherichia coli, 72, rifampin alone) was 64 µg/mL. The “MIC of rifampin in combination with CAS” value (E. coli 72 [2]; rifampin with CAS) was 0.5 µg/mL, the MIC (E. coli ATCC25922; Escherichia coli, ATCC25922, rifampin alone) was 4 µg/mL and the “MIC of rifampin in combination with CAS” value (E. coli ATCC25922; rifampin with CAS) was 0.25 µg/mL. For the same compound, the “Time-kill, bacterial count” value (E. coli MG1655 [3]) was “no antimicrobial efficacy”, the “Time-kill, bacterial count” value (E. coli 72 [4]) was “no antimicrobial efficacy” and the MIC ([5]; Salmonella enterica, rifampin alone) was 16 µg/mL. For the same compound, the “MIC of rifampin in combination with CAS” value ([5]; rifampin with CAS) was 0.5 µg/mL, the “Growth inhibition, Compound” value (E. coli MG1655 [6]) was 101% and the “Death/mortality rate of G. mellonella larvae challenged with E. coli 72” value (E. coli 72 [7]) was “could not reduce the death rate”. The MIC (P. aeruginosa PAO1; Pseudomonas aeruginosa, PAO1, rifampin alone) was 16 µg/mL, the “MIC of rifampin in combination with CAS” value (P. aeruginosa PAO1; rifampin with CAS) was 0.5 µg/mL and the MIC (E. coli MG1655 [1]; Escherichia coli, MG1655, rifampin alone, MHB, 18 h at 37°C, OD600) was 8 µg/mL. The “MIC of rifampin in combination with CAS” value (E. coli MG1655 [1]; rifampin with CAS, MHB, 18 h at 37°C, OD600) was 0.5 µg/mL.

In the case of “Echinocandin B nucleus hydrochloride [ECBN HCl]”, the “FICI in combination with rifampin” value (E. coli MG1655 [1]; MHB, 18 h at 37°C) is reported as over 1 and the “Synergistic activity” value (E. coli MG1655 [1]) is reported as “weak synergistic activity”.

For `OC(c1cc(C(F)(F)F)nc2c(C(F)(F)F)cccc12)C1CCCCN1` (centres unmarked) [Mefloquine], the IC50 (K+ channel (KvQT1/minK)) is given as about 1000 nM.

For Colistin sulfate (1066-17-7 free base), the “Growth inhibition, Compound + rifampin” value (E. coli MG1655 [8]; [9]) was 113% and the “Growth inhibition, Compound” value (E. coli MG1655 [6]) was 104%.

In the case of `CN1CCN(c2c(F)cc3c(=O)c(C(=O)O)cn4c3c2SCC4)CC1.Cl` [Rufloxacin hydrochloride], the “Growth inhibition, Compound + rifampin” value (E. coli MG1655 [8]) is reported as 100% and the “Growth inhibition, Compound” value (E. coli MG1655 [6]) is reported as 113%.

In the case of `COS(=O)(=O)[O-].C[n+]1c2ccccc2nc2ccccc21` [Phenazine methosulfate], the “Growth inhibition, Compound + rifampin” value (E. coli MG1655 [8]; [9]) is reported as 76% and the “Growth inhibition, Compound” value (E. coli MG1655 [6]) is reported as 80%.

For Streptozocin, the “Growth inhibition, Compound + rifampin” value (E. coli MG1655 [8]) was 69% and the “Growth inhibition, Compound” value (E. coli MG1655 [6]) was 62%.

With `CC(=O)OC[C@H]1O[C@@H]([S-])[C@H](OC(C)=O)[C@@H](OC(C)=O)[C@@H]1OC(C)=O.CCP(CC)CC.[Au+]` [Auranofin] the “Growth inhibition, Compound + rifampin” value (E. coli MG1655 [8]) was 60% and the “Growth inhibition, Compound” value (E. coli MG1655 [6]) was 64%.
